The nature of this data set: Dissolution assessment: solubility in FaSSIF. It is filed as physicochemical. The settings on record: FaSSIF pH 6.5, 37° C., 600 rpm, target concentration 1.0 mg/mL. The procedure: An amount of Compound A (about 6 mg) and an amorphous solid dispersion (equivalent to around 6 mg Compound A) were weighed into separate 8 ml bottle, and 6 ml FaSSIF (Fasted state simulated intestinal fluid) was added (target concentration 1.0 mg/mL). The suspensions were stirred using a thermomixer at 37° C. under 600 rpm and 200 μL of suspensions were withdrawn at pre-set time intervals (such as 5 min) and then centrifuged at 14000 rpm for 4 min. Then, 100 μL of supernatant was diluted with 500 μL ACN (Acetonitrile) to prevent precipitation, and was analyzed by HPLC.
FaSSIF was prepared by following steps: 1) Place 0.1024 g sodium hydroxide, 0.7518 g sodium dihydrogen phosphate anhydrous and 1.5470 g sodium chloride in a 250 mL volumetric flask, add about 225 mL water, and adjust the pH to 6.5 with 1 N sodium hydroxide or 1N hydrochloric acid. Make up to volume (250 mL) with pure water. 2) Place and dissolve 0.4480 g SIF Powder Original with 100 mL of buffer (from step 1) in a 200 mL volumetric flask, add water to volume and mix well.

Each structure is given as a SMILES string. ≈ marks a conversion by molar mass, not a printed value.

As for `COC(=O)OCOc1c2n(ccc1=O)N([C@H]1c3ccccc3CSc3c1ccc(F)c3F)CC1(CC1)C2=O` [Sample 1, [1-((11S)-7,8-difluoro(6H,11H-dibenzo[c,f]thiepin-11-yl))-4,6-dioxospiro[1,2,3,9-tetrahydropyridino[1,2-e]pyridazine-3,1′-cyclopropane]-5-yloxy]methyl methoxyformate], for the setting “5 min”, the “Solubility 5 min” value amounted to 4.95 µg/mL (≈ 9.16 µM). Besides, where the note is “15 min”, the “Solubility 15 min” value was 4.89 µg/mL (≈ 9.05 µM).

These data come from US11872224B2, “Amorphous solid dispersion formulation” (TaiGen Biotechnology Co., Ltd., priority 2020, dated 2024).
